Patent US12145947B2, “Pyrimidine based modulators and uses thereof” (Quanta Therapeutics, Inc., priority 2022, dated 2024)
Like-named read-outs stand apart in the source and are kept apart here.

What was measured:
KRAS G12D/RAF1 = molecular target: T1, KRAS G12D/RAF1 (Homo sapiens, UniProt P01116, G12D); assay: Protein-protein interaction (PPI) HTRF assay KRAS G12D/RAF1; format: binding
T1 construct: His6-MBP (N, cleaved yes); made in house; host or cells: E. coli
How it was run: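 Biotinylated human KRAS (1-169; wt, G12D, G12V) or wt NRAS, GppNHp-loaded, pre-incubated 30 min RT with compound and streptavidin-d2, then His-RAF1 RBD (52-131) with anti-6His Tb cryptate added for 1 h RT. HTRF 665/615 ratio normalized to no compound (0%) and untagged RAF1 (100%); IC50.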

[1] = tested on: AGS cells (KRAS G12D), phospho-ERK; assay: pERK In Cell Western (ICW) assay (Method B), AGS cells; format: cell-based; conditions: Homo sapiens
Procedure: pERK ICW is a high throughput screening assay to evaluate the cellular potency of mutant KRAS small molecule inhibitors. KRAS mutant cell lines AGS and GP2D (KRAS^G12D) were purchased from ATCC and maintained respectively in RPMI and DMEM medium supplemented with 10% fetal bovine serum and Penicillin/Streptomycin.
Cells grown in exponential phase were trypsinized, resuspended in fresh media, and viable cells were counted using a cell counter with Trypan Blue (BioRad TC20). Cells were seeded into 384-well plate (Greiner 781091) at density of 5,000 cells/well for AGS and 10,000 cells/well for GP2D and allowed to grow overnight in a 37° C. CO2 incubator. The next day, compounds were dispensed into wells with a ½ log, 10-point serial dilution and top concentration of […] using Tecan D300e dispenser and incubated for 3 hours in a 37° C. CO2 incubator. Cells were then fixed with paraformaldehyde (Electron Microscopy Sciences, 15710, 4% final concentration) for 30 min, permeabilized with wash buffer (1×PBS+0.1% Triton X-100) for 30 min and blocked with Odyssey blocking buffer (Li—COR 927-70001) for 1 hour, all at room temperature (RT). Phospho-ERK antibody (CST 4370L) was diluted 1:500 in Odyssey blocking+0.2% Tween 20 and incubated with cells overnight at 4° C. The next day, plates were washed 5× with wash buffer, incubated with IRDye 800 CW, Goat anti-Rabbit secondary antibody (Li—COR 926-32211, 1:500) and DRAQ5 (CST 4084L, 1:5,000) diluted in Odyssey blocking+0.2% Tween 20 for 1 hour, washed 5×, and imaged on an Odyssey CLx imaging system.
For data analysis, signal intensities from 800 (phosphor-ERK) and 700 (DRAQ5) channels were extracted, and phospho-ERK signals were normalized to DRAQ5 signals for each well and percent of DMSO control values were computed. Data were then imported into Graphpad Prism to compute half-maximal inhibitory concentrations (IC50) using a 4-parameter variable slope model. Z-factor for each plate was computed from signals derived from wells treated with either DMSO or […] of Trametinib. AGS pERK ICW (Method B) IC50 (uM) values of selected compounds are depicted in Table 2 with compounds having a value 0.001 uM to 0.01 uM as ++++; >0.01 uM to 0.1 uM as +++; >0.1 uM to 1 uM as ++; 1 uM to 10 uM as + and >10 uM as NA.

[2] = Table 4, pERK, 3 hours, read-out: ICW-AGS

T1 sequence (P01116 with tags, fused parts or gaps isoform P01116-2 G12D): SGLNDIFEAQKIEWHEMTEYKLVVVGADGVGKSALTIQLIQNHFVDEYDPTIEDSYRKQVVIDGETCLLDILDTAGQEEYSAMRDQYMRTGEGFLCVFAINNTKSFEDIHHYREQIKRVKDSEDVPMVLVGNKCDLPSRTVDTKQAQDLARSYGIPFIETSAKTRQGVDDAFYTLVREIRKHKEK

CN(C)C(=O)c1nn2c(c1Cl)CN(c1nc(OCC34CCCN3CCC4)nc(N3CC4(CCc5sc(N)c(C#N)c54)C3)c1C#N)CCC2 [Compound 18, 5-[6-(2-amino-3-cyano-spiro[5,6-dihydrocyclopenta[b]thiophene-4,3′-azetidine]-1′-yl)-5-cyano-2-(1,2,3,5,6,7-hexahydropyrrolizin-8-ylmethoxy)pyrimidin-4-yl]-3-chloro-N,N-dimethyl-4,6,7,8-tetrahydropyrazolo[1,5-a][1,4]diazepine-2-carboxamide]
IC50 (KRAS G12D/RAF1; Table 4): 100 to 1000 nM | IC50 [1, 2]: 0.1 to 1 µM

C[C@H](Oc1nc(N2C[C@H]3CC[C@@H](C2)N3)c(C#N)c(N2CC3(CCc4sc(N)c(C#N)c43)C2)n1)[C@@H]1CCCN1C [Compound 88, 2-amino-1′-[5-cyano-6-[(1R,5S)-3,8-diazabicyclo[3.2.1]octan-3-yl]-2-[(1S)-1-[(2S)-1-methylpyrrolidin-2-yl]ethoxy]pyrimidin-4-yl]spiro[5,6-dihydrocyclopenta[b]thiophene-4,3′-azetidine]-3-carbonitrile]
IC50 (KRAS G12D/RAF1; Table 4): 10000 to 100000 nM | IC50 [1, 2]: 1 to 10 µM

N#Cc1c(N2C[C@H]3CC[C@@H](C2)N3)nc(OCC2(CN3CCC(F)(F)CC3)CC2)nc1N1CC2(CCc3sc(N)c(C#N)c32)C1 [Compound 34, 2-amino-1′-[5-cyano-6-(3,8-diazabicyclo[3.2.1]octan-3-yl)-2-[[1-[(4,4-difluoro-1-piperidyl)methyl]cyclopropyl]methoxy]pyrimidin-4-yl]spiro[5,6-dihydrocyclopenta[b]thiophene-4,3′-azetidine]-3-carbonitrile]
IC50 (KRAS G12D/RAF1; Table 4): 100 to 1000 nM | IC50 [1, 2]: 0.01 to 0.1 µM

CN(C)C(=O)c1nn2c(c1Cl)CN(c1nc(OC[C@@]34CCCN3C[C@H](F)C4)nc(N3CC4(CCc5sc(N)c(C#N)c54)C3)c1C#N)CCC2 [Compound 2, 5-[6-(2-amino-3-cyano-spiro[5,6-dihydrocyclopenta[b]thiophene-4,3′-azetidine]-1′-yl)-5-cyano-2-[[(2R,8S)-2-fluoro-1,2,3,5,6,7-hexahydropyrrolizin-8-yl]methoxy]pyrimidin-4-yl]-3-chloro-N,N-dimethyl-4,6,7,8-tetrahydropyrazolo[1,5-a][1,4]diazepine-2-carboxamide]
IC50 (KRAS G12D/RAF1; Table 2): 100 to 1000 nM | IC50 (KRAS G12D/RAF1; Table 4): 100 to 1000 nM | IC50 ([1]; Table 2, 3 hours, ICW, read-out: pERK-AGS (uM) Method B): 0.01 to 0.1 µM | IC50 [1, 2]: 0.01 to 0.1 µM

Cc1nc(-c2nn3c(c2Cl)CN(c2nc(OC[C@@]45CCCN4C[C@H](F)C5)nc(N4CC5(CCc6sc(N)c(C#N)c65)C4)c2C#N)CCC3)no1 [Compound 46, 2-amino-1′-[6-[3-chloro-2-(5-methyl-1,2,4-oxadiazol-3-yl)-4,6,7,8-tetrahydropyrazolo[1,5-a][1,4]diazepin-5-yl]-5-cyano-2-[[(2R,8S)-2-fluoro-1,2,3,5,6,7-hexahydropyrrolizin-8-yl]methoxy]pyrimidin-4-yl]spiro[5,6-dihydrocyclopenta[b]thiophene-4,3′-azetidine]-3-carbonitrile]
IC50 (KRAS G12D/RAF1; Table 4): 1000 to 10000 nM | IC50 [1, 2]: 0.1 to 1 µM

CN(C)C(=O)c1nn2c(c1Cl)CN(c1nc(OC[C@@]34CCCN3C[C@H](F)C4)nc(N3CC4(CCc5sc(N)c(C#N)c54)C3)c1F)CCC2 [Compound 9, 5-[6-(2-amino-3-cyano-spiro[5,6-dihydrocyclopenta[b]thiophene-4,3′-azetidine]-1′-yl)-5-fluoro-2-[[(2R,8S)-2-fluoro-1,2,3,5,6,7-hexahydropyrrolizin-8-yl]methoxy]pyrimidin-4-yl]-3-chloro-N,N-dimethyl-4,6,7,8-tetrahydropyrazolo[1,5-a][1,4]diazepine-2-carboxamide]
IC50 (KRAS G12D/RAF1; Table 4): 1000 to 10000 nM | IC50 [1, 2]: 0.1 to 1 µM

CN(C)C(=O)c1nn2c(c1Cl)CN(c1nc(OCC3(CN4CCOCC4)CC3)nc(N3CC4(CCc5sc(N)c(C#N)c54)C3)c1C#N)CCC2 [Compound 5, 5-[6-(2-amino-3-cyano-spiro[5,6-dihydrocyclopenta[b]thiophene-4,3′-azetidine]-1′-yl)-5-cyano-2-[[1-(morpholinomethyl)cyclopropyl]methoxy]pyrimidin-4-yl]-3-chloro-N,N-dimethyl-4,6,7,8-tetrahydropyrazolo[1,5-a][1,4]diazepine-2-carboxamide]
IC50 (KRAS G12D/RAF1; Table 4): 1000 to 10000 nM | IC50 [1, 2]: 0.01 to 0.1 µM

CN(C)C1(COc2nc(N3C[C@H]4CC[C@@H](C3)N4)c(C#N)c(N3CC4(CCc5sc(N)c(C#N)c54)C3)n2)CC1 [Compound 47, 2-amino-1′-[5-cyano-6-[(1R,5S)-3,8-diazabicyclo[3.2.1]octan-3-yl]-2-[[1-(dimethylamino)cyclopropyl]methoxy]pyrimidin-4-yl]spiro[5,6-dihydrocyclopenta[b]thiophene-4,3′-azetidine]-3-carbonitrile]
IC50 (KRAS G12D/RAF1; Table 4): 10000 to 100000 nM | IC50 [1, 2]: 0.1 to 1 µM

CN1CCN(CC2(COc3nc(N4C[C@H]5CC[C@@H](C4)N5)c(C#N)c(N4CC5(CCc6sc(N)c(C#N)c65)C4)n3)CC2)CC1=O [Compound 80, 2-amino-1′-[5-cyano-2-[[1-[(4-methyl-3-oxo-piperazin-1-yl)methyl]cyclopropyl]methoxy]-6-[(1R,5S)-3,8-diazabicyclo[3.2.1]octan-3-yl]pyrimidin-4-yl]spiro[5,6-dihydrocyclopenta[b]thiophene-4,3′-azetidine]-3-carbonitrile]
IC50 (KRAS G12D/RAF1; Table 4): 100 to 1000 nM | IC50 [1, 2]: 0.01 to 0.1 µM

N#Cc1c(N2C[C@H]3CC[C@@H](C2)N3)nc(OCC2(CN3CCOCC3)CC2)nc1N1CC2(CCCCc3sc(N)c(C#N)c32)C1 [Compound 70, 2-amino-1′-[5-cyano-2-[[1-(morpholinomethyl)cyclopropyl]methoxy]-6-[(1R,5S)-3,8-diazabicyclo[3.2.1]octan-3-yl]pyrimidin-4-yl]spiro[5,6,7,8-tetrahydrocyclohepta[b]thiophene-4,3′-azetidine]-3-carbonitrile]
IC50 (KRAS G12D/RAF1; Table 4): 100 to 1000 nM | IC50 [1, 2]: 0.01 to 0.1 µM

N#Cc1c(N2CC3(CCc4sc(N)c(C#N)c43)C2)nc(OC[C@@]23CCCN2C[C@H](F)C3)nc1N1CCC[C@]2(C1)NC(=O)NC2=O [Compound 11, 2-amino-1′-[5-cyano-6-[(5R)-2,4-dioxo-1,3,9-triazaspiro[4.5]decan-9-yl]-2-[[(2R,8S)-2-fluoro-1,2,3,5,6,7-hexahydropyrrolizin-8-yl]methoxy]pyrimidin-4-yl]spiro[5,6-dihydrocyclopenta[b]thiophene-4,3′-azetidine]-3-carbonitrile]
IC50 (KRAS G12D/RAF1; Table 4): 100 to 1000 nM | IC50 [1, 2]: 1 to 10 µM

N#Cc1c(N)sc2c1C1(CC2)CN(c2nc(OC[C@@]34CCCN3C[C@H](F)C4)nc(N3C[C@H]4CC[C@@H](C3)N4)c2F)C1 [Compound 15, 2-amino-1′-[6-(3,8-diazabicyclo[3.2.1]octan-3-yl)-5-fluoro-2-[[(2R,8S)-2-fluoro-1,2,3,5,6,7-hexahydropyrrolizin-8-yl]methoxy]pyrimidin-4-yl]spiro[5,6-dihydrocyclopenta[b]thiophene-4,3′-azetidine]-3-carbonitrile]
IC50 (KRAS G12D/RAF1; Table 4): 100 to 1000 nM | IC50 [1, 2]: 0.01 to 0.1 µM

N#Cc1c(N)sc2c1C1(CC2)CN(c2nc(OCC3(CN4CCOCC4)CC3)nc(N3C[C@H]4CC[C@@H](C3)N4)c2F)C1 [Compound 22, 2-amino-1′-[6-(3,8-diazabicyclo[3.2.1]octan-3-yl)-5-fluoro-2-[[1-(morpholinomethyl)cyclopropyl]methoxy]pyrimidin-4-yl]spiro[5,6-dihydrocyclopenta[b]thiophene-4,3′-azetidine]-3-carbonitrile]
IC50 (KRAS G12D/RAF1; Table 4): 100 to 1000 nM | IC50 [1, 2]: 0.01 to 0.1 µM
